In general, IC50 refers to the concentration that inhibits the measured activity by half. The low end stands for greater potency in that assay, the high end for weaker potency in that assay. Broadly, the Ki is a dissociation constant, usually derived from enzyme kinetics or from competition with a known ligand. For orientation: Kd means a measure of binding affinity in units of concentration.

This note sets out measurements from ChEMBL document CHEMBL5113375, “Development of Mcl-1 inhibitors for cancer therapy” (Eur J Med Chem, 2021).

For assay [1], the target named is T1, Bcl-xL/BH3-interacting domain death agonist (Homo sapiens, UniProt Q07817). Briefly: Inhibition of Bcl-xL/Bid complex (unknown origin). The assay is classed as protein assay.
Another assay concerns the target MCL1-BAK1 complex (Homo sapiens, UniProt Q07820). Briefly: Binding affinity to Mcl-1/Bak (unknown origin) assessed as inhibition constant by fluorescence polarization assay. The assay is classed as protein-complex assay. On the technique in general: In fluorescence polarisation assays a small probe gives low polarisation when free and higher when bound to something large.

Assay [2] is described as follows: Inhibition of Mcl-1 (172 - 327 residues)/Noxa (unknown origin) by fluorescence polarization assay. Details: species or system Homo sapiens.
In assay [3] the target is T2, Induced myeloid leukemia cell differentiation protein Mcl-1/Bcl-2-like protein 11 (Homo sapiens, UniProt Q07820). Briefly: Inhibition of Mcl-1/Bim (unknown origin) by ELISA method. The assay is classed as protein assay. A general note: An ELISA detects its analyte on a solid surface through an enzyme-linked reagent.
The target in assay [4] is T3, Bcl-xL/Bcl-2-like protein 11 (Homo sapiens, UniProt Q07817). The experiment in a line: Inhibition of Bcl-xL/Bim (unknown origin) by ELISA method. It counts as protein assay.
Assay [5] deals with T3, Bcl-xL/Bcl-2-like protein 11. The experiment in a line: Inhibition of GST-tagged Bcl-xL/Bim (unknown origin) incubated for 15 mins followed by Bim addition measured after 2 hrs by ELISA method. The assay is classed as protein assay.
The target of assay [6] is T2, Induced myeloid leukemia cell differentiation protein Mcl-1/Bcl-2-like protein 11. The experiment in a line: Inhibition of GST-tagged Mcl-1/Bim (unknown origin) incubated for 15 mins followed by Bim addition measured after 2 hrs by ELISA method. The assay is classed as protein assay.
The target in assay [7] is T4, Induced myeloid leukemia cell differentiation protein Mcl-1/BH3-interacting domain death agonist (Homo sapiens, UniProt Q07820). The experiment in a line: Binding affinity to Mcl-1/Bid (unknown origin) assessed as inhibition constant by fluorescence polarization assay. The assay is classed as protein assay.
In assay [8] the target is T3, Bcl-xL/Bcl-2-like protein 11. The experiment in a line: Binding affinity to Bcl-xL/Bim (unknown origin) assessed as inhibition constant by fluorescence polarization assay. The assay is classed as protein assay.
Assay [9] addresses T5, BCL2/BID (Homo sapiens, UniProt P10415). Briefly: Binding affinity to Bcl-2 /Bid (unknown origin) assessed as inhibition constant by fluorescence polarization assay. It counts as protein assay.
Assay [10] concerns the target T5, BCL2/BID. The experiment in a line: Binding affinity to Bcl-2/Bid (unknown origin) by fluorescence polarization assay. It counts as protein assay.
In assay [11] the target is T1, Bcl-xL/BH3-interacting domain death agonist. Briefly: Binding affinity to Bcl-xL/Bid (unknown origin) by fluorescence polarization assay. The assay is classed as protein assay.
The target of assay [12] is T4, Induced myeloid leukemia cell differentiation protein Mcl-1/BH3-interacting domain death agonist. The experiment in a line: Binding affinity to Mcl-1/Bid (unknown origin) by fluorescence polarization assay. The assay is classed as protein assay.
For assay [13], the target named is Apoptosis regulator Bcl-2/Bcl-2 homologous antagonist/killer (Homo sapiens, UniProt P10415+Q16611). Briefly: Inhibition of Bcl-2/Bak (unknown origin). It counts as protein assay.
Another assay deals with T6, BCL2A1/BAK1 (Homo sapiens, UniProt Q16548+Q16611).
T6 sequence (Q16611 whole entry): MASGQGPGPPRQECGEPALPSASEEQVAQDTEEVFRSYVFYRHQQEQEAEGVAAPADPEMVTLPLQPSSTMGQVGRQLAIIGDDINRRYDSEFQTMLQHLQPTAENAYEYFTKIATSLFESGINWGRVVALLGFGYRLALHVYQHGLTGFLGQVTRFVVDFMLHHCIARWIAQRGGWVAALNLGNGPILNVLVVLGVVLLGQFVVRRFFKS
T6 sequence (Q16548 whole entry): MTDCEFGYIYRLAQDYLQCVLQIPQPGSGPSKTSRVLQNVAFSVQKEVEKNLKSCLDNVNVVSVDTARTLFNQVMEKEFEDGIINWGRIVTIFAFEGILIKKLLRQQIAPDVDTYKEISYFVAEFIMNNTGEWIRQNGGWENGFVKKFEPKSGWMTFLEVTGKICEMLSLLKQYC
Briefly: Inhibition of Bfl-1/Bak (unknown origin). The assay is classed as protein assay.

The target in another assay is BCL2/BCL2L11 (Homo sapiens, UniProt P10415). The experiment in a line: Inhibition of Bcl-2/Bim (unknown origin) by ELISA method. The assay is classed as protein assay.
Assay [14] is described as follows: Cytotoxicity against human MOLP8 cells by caspase-3/7 activation. It counts as functional, cell-based. The following applies: MOLP-8.
For the next assay, the target named is Bcl-xL/BAK (Homo sapiens, UniProt Q07817). The experiment in a line: Binding affinity to Bcl-xL/Bak (unknown origin) assessed as dissociation constant by ITC method. It counts as protein assay.
Assay [15] addresses T4, Induced myeloid leukemia cell differentiation protein Mcl-1/BH3-interacting domain death agonist. Briefly: Inhibition of Mcl-1/Bid (unknown origin) by fluorescence polarization assay. The assay is classed as protein assay.
The target in assay [16] is T1, Bcl-xL/BH3-interacting domain death agonist. Briefly: Inhibition of Bcl-xL/Bid (unknown origin) by fluorescence polarization assay. It counts as protein assay.

“And” between values parts separate entries of the source, which are not always exact repeats. Equal entries are not always repeated.

T1 sequence (Q07817 whole entry, the tested form may be a part): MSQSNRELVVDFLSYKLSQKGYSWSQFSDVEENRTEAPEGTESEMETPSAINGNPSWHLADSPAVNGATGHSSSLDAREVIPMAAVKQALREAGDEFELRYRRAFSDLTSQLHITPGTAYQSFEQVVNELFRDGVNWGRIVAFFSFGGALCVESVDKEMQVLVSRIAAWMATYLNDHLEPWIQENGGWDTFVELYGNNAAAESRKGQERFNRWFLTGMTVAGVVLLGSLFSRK
T1 sequence (P55957 whole entry, further chain, the tested form may be a part): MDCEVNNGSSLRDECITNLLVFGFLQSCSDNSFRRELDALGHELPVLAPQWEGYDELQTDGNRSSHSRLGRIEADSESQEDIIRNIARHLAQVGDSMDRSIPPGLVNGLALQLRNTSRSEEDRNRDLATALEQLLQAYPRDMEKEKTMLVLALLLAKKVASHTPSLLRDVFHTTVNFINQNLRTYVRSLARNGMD
T3 sequence (Q07817 whole entry): as the sequence (Q07817 whole entry, the tested form may be a part) above
T3 sequence (O43521 whole entry, further chain): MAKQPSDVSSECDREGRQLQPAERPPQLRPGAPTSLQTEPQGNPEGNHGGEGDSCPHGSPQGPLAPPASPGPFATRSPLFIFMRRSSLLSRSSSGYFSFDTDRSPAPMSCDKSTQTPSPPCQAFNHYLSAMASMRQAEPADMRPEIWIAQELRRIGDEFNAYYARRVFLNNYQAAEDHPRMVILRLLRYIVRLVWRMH
T5 sequence (P10415 whole entry): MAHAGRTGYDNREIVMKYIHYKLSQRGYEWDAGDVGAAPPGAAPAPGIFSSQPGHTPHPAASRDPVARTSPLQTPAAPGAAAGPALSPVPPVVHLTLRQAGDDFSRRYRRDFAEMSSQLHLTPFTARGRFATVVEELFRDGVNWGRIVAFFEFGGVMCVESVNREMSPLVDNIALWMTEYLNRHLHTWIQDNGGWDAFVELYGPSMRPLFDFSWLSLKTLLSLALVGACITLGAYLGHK
T5 sequence (P55957 whole entry, further chain): as the sequence (P55957 whole entry, further chain, the tested form may be a part) above
T4 sequence (Q07820 whole entry, the tested form may be a part): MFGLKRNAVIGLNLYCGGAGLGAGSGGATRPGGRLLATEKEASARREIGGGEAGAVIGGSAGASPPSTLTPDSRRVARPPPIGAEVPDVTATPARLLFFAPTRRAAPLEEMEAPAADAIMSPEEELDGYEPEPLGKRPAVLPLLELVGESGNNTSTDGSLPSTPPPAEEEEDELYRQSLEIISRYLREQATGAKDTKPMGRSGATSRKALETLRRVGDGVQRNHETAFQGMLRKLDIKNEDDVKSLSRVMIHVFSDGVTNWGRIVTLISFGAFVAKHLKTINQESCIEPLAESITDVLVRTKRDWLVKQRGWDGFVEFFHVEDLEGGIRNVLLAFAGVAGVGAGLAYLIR
T4 sequence (P55957 whole entry, further chain, the tested form may be a part): as the sequence (P55957 whole entry, further chain, the tested form may be a part) above
T2 sequence (Q07820 whole entry): as the sequence (Q07820 whole entry, the tested form may be a part) above
T2 sequence (O43521 whole entry, further chain): as the sequence (O43521 whole entry, further chain) above
BCL2/BCL2L11, sequence (P10415 whole entry): as the sequence (P10415 whole entry) above
BCL2/BCL2L11, sequence (O43521 whole entry, further chain): as the sequence (O43521 whole entry, further chain) above
MCL1-BAK1 complex, sequence (Q07820 whole entry, one chain of several): as the sequence (Q07820 whole entry, the tested form may be a part) above
Bcl-xL/BAK, sequence (Q07817 whole entry, one chain of several, the tested form may be a part): as the sequence (Q07817 whole entry, the tested form may be a part) above
Apoptosis regulator Bcl-2/Bcl-2 homologous antagonist/killer, sequence (P10415 whole entry, one chain of several): as the sequence (P10415 whole entry) above

`Cc1cs/c(=N\C2CCCCC2)n1/N=C/c1ccc(O)c(O)c1O` registered an IC50 in assay [1] of over 50000 nM.

As to `Cc1cc(OCCCS(=O)(=O)N2CC(C(=O)O)Cc3ccccc32)cc(C)c1Cl` (stereo not given), the Ki at MCL1-BAK1 complex came out at 7770 nM.

As to `C=C(c1ccc(S(=O)(=O)Nc2cc(-c3ccc(C)c4ccccc34)ccc2C(=O)O)cc1)C(C)C`, the IC50 in assay [2] is 80 nM.

Compound `Cc1ccc(-c2ccc(C(=O)O)c(NS(=O)(=O)c3ccc(OCCn4cccn4)cc3)c2)c2ccccc12` returned an IC50 in [2] of 30 nM.

As to `O=C(c1ccccc1O)c1[nH]c(Cl)c(Cl)c1-n1c(C(=O)c2ccccc2O)cc(Cl)c1Cl`, the IC50 was 12700 nM and 12500 nM in [3]; 19700 nM and 12000 nM in [4].

With `CCOC(=O)CSc1ccc(C(=O)c2[nH]c(Cl)c(Cl)c2-n2cc(Cl)c(Cl)c2C(=O)c2ccc(SCC(=O)OCC)cc2O)c(O)c1`, the IC50 in [5] came to 1200 nM; in assay [6] it was 1800 nM.

As for `O=C(Nc1ccccc1)C1=CN=c2s/c(=C\c3cn(Cc4ccccc4)c4ccccc34)c(=O)n2[C@@H]1c1ccccc1`, the Ki in [7] is 360 nM; in [8], 830 nM; on BCL2/BID [9], 1100 nM.

On to `O=C(Cn1nnnc1-c1ccccc1Oc1ccc(Cl)cc1Cl)NNC(=S)Nc1ccc([N+](=O)[O-])cc1`, for which the Ki turned out to be 2400 nM at BCL2/BID [10], 3000 nM in assay [11] and 2000 nM in assay [12].

Turning to `O=C(Nc1ccccc1)C1=CN=c2s/c(=C\c3cn(Cc4ccccc4)c4ccccc34)c(=O)n2[C@H]1c1ccccc1`, the Ki in [7] came to 2200 nM; in assay [8], 1100 nM; at BCL2/BID [9], 810 nM.

In the case of `Cc1cc2c(C(=O)NC(C)c3ccc(Cl)cc3)c(O)c(O)cc2c(O)c1-c1c(C)cc2c(C(=O)NC(C)c3ccc(Cl)cc3)c(O)c(O)cc2c1O` (stereo not given), the IC50 in [13] was determined as 490 nM; against BCL2A1/BAK1, 400 nM.

Take `N#CC1=C(NCCC(=O)CCCCC(=O)NCCCCCNc2cccc3c2C(=O)N(C2CCC(=O)NC2=O)C3=O)c2ccc(Sc3ccc(Br)cc3)c3cccc(c23)C1=O` (stereo not given): the results for the IC50 (in assay [3]; on BCL2/BCL2L11) were 780 nM and 540 nM, respectively.

With `Cc1ccc(-c2ccc(C(=O)O)c(NS(=O)(=O)c3ccc(Oc4ccccc4)cc3)c2)c2ccccc12`, the IC50 in [2] was 500 nM.

As for `Cc1c(-c2cccc3c(CCCOc4cccc5ccccc45)c(C(=O)O)n(C)c23)c(COc2ccc(B(O)O)c(C=O)c2)nn1C`, the IC50 in [14] came out at 75 nM.

On to `N#CC1=C(C#N)c2ccc(N3CCSCC3)c3cccc(c23)C1=O`, for which the values for the Ki (in assay [7]; at BCL2/BID [9]) were 58 nM and 310 nM, respectively.

In the case of `Cc1ccc(-c2ccc(C(=O)O)c(NS(=O)(=O)c3ccc(OCCCN4CCOCC4)cc3)c2)c2ccccc12`, half-maximal inhibition in [2] (IC50) was put at 60 nM.

Take `COc1cccc(-c2ccc(/C=C3\SC(=S)N([C@@H](Cc4ccccc4)C(=O)O)C3=O)cn2)c1OC`: the Ki at MCL1-BAK1 complex is 6900 nM. The Kd on Bcl-xL/BAK worked out at 3400 nM.

`COC(=O)C1=CN=c2s/c(=C\c3cn(Cc4ccccc4)c4ccccc34)c(=O)n2[C@@H]1c1ccc(C(C)=O)cc1`: the Ki was determined as 420 nM in assay [7], 550 nM in [8] and 1000 nM at BCL2/BID [9].

On to `COC(=O)C1=CN=c2s/c(=C\c3cn(Cc4ccccc4)c4ccccc34)c(=O)n2[C@H]1c1ccc(C(C)=O)cc1`, for which the Ki in assay [7] is 320 nM; in assay [8], 280 nM; at BCL2/BID [9], 940 nM.

With `O=C1c2ccc(OS(=O)(=O)C(F)(F)F)cc2Oc2c(Cl)c(Cl)c(C(=O)c3ccc(OS(=O)(=O)C(F)(F)F)cc3O)n2-c2c1[nH]c(Cl)c2Cl`, the IC50 in assay [3] was 1400 nM; in assay [4], 2300 nM.

With `Cc1cc2c(C(C)C)c(O)c(O)c(C=O)c2c(O)c1-c1c(C)cc2c(C(C)C)c(O)c(O)c(C=O)c2c1O` [GOSSYPOL], the IC50 in assay [15] came to 1750 nM; in [16], 3030 nM.

Regarding `N#CC1=C(NCCC(=O)CCCCC(=O)NCCOCCOCCNc2cccc3c2C(=O)N(C2CCC(=O)NC2=O)C3=O)c2ccc(Sc3ccc(Br)cc3)c3cccc(c23)C1=O` (stereo not given), the figures for the IC50 (in [3]; on BCL2/BCL2L11) were 11800 nM and 4940 nM, respectively.
